This is an account of results in ChEMBL document CHEMBL5291721, “A preclinical secondary pharmacology resource illuminates target-adverse drug reaction associations of marketed drugs” (Nat Commun, 2023).

Among the targets are D(1A) dopamine receptor (Homo sapiens, UniProt P21728); Histamine H3 receptor (Homo sapiens, UniProt Q9Y5N1); Mu-type opioid receptor (Homo sapiens, UniProt P35372).
The target of a further test is Acetylcholinesterase (Homo sapiens, UniProt P22303). It is filed as functional.
Test [1] has as its target T1, Alpha-1A adrenergic receptor (Homo sapiens, UniProt P35348).
T1 sequence (P35348 whole entry): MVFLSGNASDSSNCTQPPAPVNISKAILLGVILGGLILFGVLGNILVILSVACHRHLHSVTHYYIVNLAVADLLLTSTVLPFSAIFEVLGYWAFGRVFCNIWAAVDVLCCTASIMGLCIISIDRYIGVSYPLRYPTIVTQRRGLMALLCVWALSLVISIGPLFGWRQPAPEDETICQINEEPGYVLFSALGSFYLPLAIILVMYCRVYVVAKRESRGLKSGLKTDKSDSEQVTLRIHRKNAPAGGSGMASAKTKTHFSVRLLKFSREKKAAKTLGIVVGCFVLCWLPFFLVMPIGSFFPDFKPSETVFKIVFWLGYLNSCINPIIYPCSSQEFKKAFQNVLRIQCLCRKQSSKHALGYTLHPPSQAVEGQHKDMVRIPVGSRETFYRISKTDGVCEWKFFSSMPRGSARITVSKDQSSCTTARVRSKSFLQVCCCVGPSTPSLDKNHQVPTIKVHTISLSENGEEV
It is filed as functional, cell-based.

Test [2] addresses T2, Alpha-2A adrenergic receptor (Homo sapiens, UniProt P08913).
T2 sequence (P08913 whole entry): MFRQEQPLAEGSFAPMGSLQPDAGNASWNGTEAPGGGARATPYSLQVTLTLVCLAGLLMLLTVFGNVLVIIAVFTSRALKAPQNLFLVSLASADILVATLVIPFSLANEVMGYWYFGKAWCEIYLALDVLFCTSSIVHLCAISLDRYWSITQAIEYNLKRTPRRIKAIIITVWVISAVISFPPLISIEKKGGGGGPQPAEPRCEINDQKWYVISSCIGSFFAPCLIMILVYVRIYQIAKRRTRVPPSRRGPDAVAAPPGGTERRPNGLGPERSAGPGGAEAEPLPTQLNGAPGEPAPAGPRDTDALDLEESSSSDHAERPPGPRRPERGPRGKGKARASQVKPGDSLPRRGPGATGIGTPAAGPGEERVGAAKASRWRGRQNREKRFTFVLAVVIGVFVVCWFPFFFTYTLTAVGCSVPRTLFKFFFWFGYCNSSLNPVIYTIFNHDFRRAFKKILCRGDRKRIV

Test [3] has as its target T3, 5-hydroxytryptamine receptor 1A (Homo sapiens, UniProt P08908).
T3 sequence (P08908 whole entry): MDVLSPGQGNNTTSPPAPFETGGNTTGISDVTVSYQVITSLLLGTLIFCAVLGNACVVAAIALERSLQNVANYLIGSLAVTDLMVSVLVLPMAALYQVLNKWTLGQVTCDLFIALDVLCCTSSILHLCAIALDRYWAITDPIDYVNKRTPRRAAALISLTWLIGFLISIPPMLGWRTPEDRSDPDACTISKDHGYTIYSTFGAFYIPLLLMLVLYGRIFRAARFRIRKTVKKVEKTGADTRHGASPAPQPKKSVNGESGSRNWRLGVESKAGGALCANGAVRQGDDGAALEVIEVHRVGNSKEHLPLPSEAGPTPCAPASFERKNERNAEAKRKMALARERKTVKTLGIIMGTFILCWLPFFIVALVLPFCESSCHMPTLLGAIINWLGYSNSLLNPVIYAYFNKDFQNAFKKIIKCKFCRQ

The target in test [4] is 5-hydroxytryptamine receptor 2B (Homo sapiens, UniProt P41595). It is filed as functional, cell-based.
Test [5] has as its target Voltage-gated inwardly rectifying potassium channel KCNH2 (Homo sapiens, UniProt Q12809). It is filed as functional.
The target in test [6] is T4, Amine oxidase [flavin-containing] A (Homo sapiens, UniProt P21397).
T4 sequence (P21397 whole entry): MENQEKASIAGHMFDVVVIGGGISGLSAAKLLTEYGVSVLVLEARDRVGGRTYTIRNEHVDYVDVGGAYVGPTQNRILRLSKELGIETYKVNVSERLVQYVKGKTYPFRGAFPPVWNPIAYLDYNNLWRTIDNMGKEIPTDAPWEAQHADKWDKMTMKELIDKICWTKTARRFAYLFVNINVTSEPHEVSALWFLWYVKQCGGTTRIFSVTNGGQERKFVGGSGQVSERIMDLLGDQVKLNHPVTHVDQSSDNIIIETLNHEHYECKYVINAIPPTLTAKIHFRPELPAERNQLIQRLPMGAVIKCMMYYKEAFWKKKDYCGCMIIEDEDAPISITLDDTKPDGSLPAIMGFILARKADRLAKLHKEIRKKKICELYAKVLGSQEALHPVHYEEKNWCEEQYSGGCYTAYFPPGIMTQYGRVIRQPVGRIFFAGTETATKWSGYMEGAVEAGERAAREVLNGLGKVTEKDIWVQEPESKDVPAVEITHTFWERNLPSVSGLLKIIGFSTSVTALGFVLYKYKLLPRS
It is filed as functional.

Test [7] deals with cGMP-inhibited 3',5'-cyclic phosphodiesterase 3A (Homo sapiens, UniProt Q14432). It is filed as functional.
cGMP-inhibited 3',5'-cyclic phosphodiesterase 3A, sequence (Q14432 whole entry): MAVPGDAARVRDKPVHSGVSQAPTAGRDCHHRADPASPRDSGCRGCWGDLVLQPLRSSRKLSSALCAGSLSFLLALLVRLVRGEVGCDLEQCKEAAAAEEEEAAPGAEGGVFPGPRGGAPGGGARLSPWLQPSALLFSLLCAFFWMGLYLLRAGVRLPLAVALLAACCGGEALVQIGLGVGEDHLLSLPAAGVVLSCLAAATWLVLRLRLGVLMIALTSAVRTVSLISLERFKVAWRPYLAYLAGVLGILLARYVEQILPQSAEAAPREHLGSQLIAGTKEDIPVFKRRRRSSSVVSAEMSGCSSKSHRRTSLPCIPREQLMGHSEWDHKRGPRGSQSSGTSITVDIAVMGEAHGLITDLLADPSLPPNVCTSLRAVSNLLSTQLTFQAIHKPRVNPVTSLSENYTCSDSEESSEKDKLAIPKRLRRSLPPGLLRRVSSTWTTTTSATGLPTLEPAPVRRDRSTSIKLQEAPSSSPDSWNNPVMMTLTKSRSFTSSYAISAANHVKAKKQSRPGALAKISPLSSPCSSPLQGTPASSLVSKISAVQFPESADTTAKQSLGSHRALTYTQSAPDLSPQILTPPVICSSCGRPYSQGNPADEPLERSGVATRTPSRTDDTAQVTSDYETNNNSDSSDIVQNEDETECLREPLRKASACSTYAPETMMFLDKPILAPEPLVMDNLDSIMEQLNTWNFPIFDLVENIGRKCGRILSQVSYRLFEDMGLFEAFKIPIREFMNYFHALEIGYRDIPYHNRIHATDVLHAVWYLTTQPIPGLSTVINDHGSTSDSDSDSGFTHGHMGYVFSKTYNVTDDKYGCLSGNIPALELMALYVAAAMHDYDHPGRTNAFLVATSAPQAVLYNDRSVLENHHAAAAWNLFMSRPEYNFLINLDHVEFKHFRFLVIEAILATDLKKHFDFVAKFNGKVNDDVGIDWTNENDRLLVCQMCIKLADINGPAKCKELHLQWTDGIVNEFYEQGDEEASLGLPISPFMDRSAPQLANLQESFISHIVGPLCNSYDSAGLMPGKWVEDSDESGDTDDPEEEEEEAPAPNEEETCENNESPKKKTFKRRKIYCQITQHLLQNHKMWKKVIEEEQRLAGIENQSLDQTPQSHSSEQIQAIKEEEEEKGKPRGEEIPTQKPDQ
Test [8] has as its target 3',5'-cyclic-AMP phosphodiesterase 4A (Homo sapiens, UniProt P27815). In kind it is functional.
Test [9] concerns the target T5, Prostaglandin G/H synthase 1 (Homo sapiens, UniProt P23219). In kind it is functional.
The target of test [10] is T5, Prostaglandin G/H synthase 1. It is filed as functional. This is another data set of the same source.
Test [11] has as its target Sodium-dependent dopamine transporter (Homo sapiens, UniProt Q01959).
The target in another test is T6, Thromboxane A2 receptor (Homo sapiens, UniProt P21731).
T6 sequence (P21731 whole entry): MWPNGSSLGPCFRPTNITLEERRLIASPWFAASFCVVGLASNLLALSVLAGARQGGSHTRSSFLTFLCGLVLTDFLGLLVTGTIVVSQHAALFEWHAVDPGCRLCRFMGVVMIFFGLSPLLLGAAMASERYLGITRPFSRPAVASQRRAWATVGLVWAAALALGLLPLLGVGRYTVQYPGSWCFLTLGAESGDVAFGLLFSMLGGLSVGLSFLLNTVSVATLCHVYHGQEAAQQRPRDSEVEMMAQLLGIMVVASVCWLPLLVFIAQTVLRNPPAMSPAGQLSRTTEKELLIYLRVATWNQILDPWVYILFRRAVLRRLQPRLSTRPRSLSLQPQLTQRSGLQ
It is filed as functional, cell-based.
Also: assay procedure not described here.

Voltage-gated inwardly rectifying potassium channel KCNH2, sequence (Q12809 whole entry): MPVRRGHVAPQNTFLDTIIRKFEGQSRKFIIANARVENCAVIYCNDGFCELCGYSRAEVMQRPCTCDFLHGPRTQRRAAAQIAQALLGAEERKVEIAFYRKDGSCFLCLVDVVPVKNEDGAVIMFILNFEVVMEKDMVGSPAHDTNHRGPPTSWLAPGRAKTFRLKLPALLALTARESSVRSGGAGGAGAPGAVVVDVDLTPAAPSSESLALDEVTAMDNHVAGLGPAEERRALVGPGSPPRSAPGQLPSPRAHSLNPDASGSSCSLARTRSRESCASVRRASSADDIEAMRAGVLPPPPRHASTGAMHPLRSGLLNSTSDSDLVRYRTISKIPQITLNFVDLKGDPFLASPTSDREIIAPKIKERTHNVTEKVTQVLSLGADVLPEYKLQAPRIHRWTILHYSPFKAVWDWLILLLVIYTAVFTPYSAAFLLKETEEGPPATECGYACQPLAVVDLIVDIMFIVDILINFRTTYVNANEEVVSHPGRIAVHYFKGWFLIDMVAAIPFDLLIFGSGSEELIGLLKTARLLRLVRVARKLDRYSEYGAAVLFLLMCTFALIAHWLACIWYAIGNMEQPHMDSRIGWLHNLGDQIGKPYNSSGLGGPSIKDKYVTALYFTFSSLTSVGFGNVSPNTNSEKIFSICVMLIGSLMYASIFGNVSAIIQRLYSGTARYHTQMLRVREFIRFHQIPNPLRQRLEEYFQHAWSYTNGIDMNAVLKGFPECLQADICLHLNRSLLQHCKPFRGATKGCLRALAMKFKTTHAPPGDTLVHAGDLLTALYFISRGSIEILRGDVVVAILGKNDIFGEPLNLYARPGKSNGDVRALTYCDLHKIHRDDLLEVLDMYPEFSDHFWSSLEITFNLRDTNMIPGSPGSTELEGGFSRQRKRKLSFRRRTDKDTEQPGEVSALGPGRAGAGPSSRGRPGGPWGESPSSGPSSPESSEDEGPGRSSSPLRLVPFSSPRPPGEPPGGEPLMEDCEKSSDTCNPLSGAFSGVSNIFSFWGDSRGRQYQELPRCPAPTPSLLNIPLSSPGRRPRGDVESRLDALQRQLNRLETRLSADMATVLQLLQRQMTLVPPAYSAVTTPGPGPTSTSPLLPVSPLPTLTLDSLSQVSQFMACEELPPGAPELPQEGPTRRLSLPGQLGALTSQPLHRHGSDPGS
Mu-type opioid receptor, sequence (P35372 whole entry): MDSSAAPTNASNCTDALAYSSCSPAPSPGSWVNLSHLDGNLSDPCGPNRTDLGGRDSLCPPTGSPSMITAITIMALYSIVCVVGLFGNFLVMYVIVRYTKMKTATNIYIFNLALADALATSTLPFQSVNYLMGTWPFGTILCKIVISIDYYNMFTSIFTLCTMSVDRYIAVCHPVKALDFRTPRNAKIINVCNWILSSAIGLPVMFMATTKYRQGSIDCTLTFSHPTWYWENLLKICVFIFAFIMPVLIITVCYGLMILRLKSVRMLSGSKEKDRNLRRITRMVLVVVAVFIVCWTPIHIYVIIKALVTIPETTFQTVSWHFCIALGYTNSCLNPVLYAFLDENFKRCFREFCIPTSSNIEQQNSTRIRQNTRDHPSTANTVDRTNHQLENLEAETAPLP
T5 sequence (P23219 whole entry): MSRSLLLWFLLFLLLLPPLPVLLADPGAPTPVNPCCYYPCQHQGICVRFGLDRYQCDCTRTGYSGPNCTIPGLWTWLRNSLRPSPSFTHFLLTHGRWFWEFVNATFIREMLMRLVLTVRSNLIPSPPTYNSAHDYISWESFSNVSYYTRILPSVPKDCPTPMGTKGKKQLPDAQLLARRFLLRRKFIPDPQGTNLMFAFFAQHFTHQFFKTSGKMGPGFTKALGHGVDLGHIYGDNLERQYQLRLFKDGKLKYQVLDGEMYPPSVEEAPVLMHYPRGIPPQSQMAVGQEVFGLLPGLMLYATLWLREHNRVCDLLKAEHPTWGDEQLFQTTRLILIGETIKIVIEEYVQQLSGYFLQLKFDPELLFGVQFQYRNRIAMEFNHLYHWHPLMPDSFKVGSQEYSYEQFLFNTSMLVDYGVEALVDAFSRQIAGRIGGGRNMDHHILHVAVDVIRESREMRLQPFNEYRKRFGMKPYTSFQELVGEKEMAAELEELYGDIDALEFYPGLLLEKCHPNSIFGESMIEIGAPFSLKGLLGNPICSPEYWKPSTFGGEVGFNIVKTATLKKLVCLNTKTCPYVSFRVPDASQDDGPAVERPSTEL
D(1A) dopamine receptor, sequence (P21728 whole entry): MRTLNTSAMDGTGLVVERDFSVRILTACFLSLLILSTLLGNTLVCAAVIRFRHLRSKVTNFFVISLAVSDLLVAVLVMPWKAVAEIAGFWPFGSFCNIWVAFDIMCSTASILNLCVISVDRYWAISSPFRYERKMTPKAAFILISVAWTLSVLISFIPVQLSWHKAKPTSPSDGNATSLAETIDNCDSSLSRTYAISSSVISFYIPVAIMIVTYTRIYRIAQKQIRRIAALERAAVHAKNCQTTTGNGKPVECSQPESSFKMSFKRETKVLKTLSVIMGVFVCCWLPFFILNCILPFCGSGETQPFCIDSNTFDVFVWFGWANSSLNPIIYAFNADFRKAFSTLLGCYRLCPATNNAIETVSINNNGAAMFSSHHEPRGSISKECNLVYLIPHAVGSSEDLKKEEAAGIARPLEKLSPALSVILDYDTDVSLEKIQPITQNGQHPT
3',5'-cyclic-AMP phosphodiesterase 4A, sequence (P27815 whole entry): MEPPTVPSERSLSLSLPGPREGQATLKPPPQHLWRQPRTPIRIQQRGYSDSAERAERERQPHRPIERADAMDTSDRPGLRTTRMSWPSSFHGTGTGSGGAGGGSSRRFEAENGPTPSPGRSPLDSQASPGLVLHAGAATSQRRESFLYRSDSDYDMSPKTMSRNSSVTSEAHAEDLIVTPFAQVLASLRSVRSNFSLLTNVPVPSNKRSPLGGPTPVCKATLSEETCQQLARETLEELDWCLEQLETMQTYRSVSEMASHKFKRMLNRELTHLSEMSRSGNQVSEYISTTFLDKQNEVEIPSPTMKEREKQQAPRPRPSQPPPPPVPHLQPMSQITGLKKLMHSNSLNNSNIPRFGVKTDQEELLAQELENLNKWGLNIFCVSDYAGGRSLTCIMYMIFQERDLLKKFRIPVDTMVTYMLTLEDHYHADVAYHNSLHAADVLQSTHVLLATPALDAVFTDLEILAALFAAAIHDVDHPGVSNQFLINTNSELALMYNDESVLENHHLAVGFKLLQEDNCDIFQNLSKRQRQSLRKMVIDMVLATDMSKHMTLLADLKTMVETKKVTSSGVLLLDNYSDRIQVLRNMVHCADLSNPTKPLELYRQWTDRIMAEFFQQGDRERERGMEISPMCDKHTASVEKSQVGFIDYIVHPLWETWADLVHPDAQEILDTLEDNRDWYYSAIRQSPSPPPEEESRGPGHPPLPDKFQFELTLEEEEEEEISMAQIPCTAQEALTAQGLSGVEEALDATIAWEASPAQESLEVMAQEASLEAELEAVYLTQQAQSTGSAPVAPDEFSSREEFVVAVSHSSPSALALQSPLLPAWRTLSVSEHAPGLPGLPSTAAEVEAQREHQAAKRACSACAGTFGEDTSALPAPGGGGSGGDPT
Histamine H3 receptor, sequence (Q9Y5N1 whole entry): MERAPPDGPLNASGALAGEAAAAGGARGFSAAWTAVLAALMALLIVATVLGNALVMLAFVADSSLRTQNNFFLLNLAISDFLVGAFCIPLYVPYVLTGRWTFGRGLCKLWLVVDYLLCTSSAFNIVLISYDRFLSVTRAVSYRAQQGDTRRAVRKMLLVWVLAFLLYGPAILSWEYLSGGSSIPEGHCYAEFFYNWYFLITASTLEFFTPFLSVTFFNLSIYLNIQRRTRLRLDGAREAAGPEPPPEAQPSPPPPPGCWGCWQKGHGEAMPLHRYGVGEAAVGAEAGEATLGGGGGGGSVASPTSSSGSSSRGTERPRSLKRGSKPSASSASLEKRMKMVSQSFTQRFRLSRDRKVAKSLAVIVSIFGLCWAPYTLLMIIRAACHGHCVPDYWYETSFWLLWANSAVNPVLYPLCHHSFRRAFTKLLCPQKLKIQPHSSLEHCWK

Take `Cc1ccc(C(=O)c2ccc(CC(=O)O)n2C)cc1` [TOLMETIN]: the AC50 (on Acetylcholinesterase; in test [1]; in [2]; at D(1A) dopamine receptor; on Histamine H3 receptor; in [3]) was > 30 µM in each case. Also, the AC50 (in test [4]; in [5]; in test [6]; at Mu-type opioid receptor; in test [7]; in test [8]) was > 30 µM throughout. The AC50 – broadly, the concentration giving half of the maximal activity seen – in test [9] is 0.081 µM; in test [10] it was 0.0415 µM; in test [11] it was > 30 µM; at Thromboxane A2 receptor, > 30 µM.
Consider `Cc1ccccc1C(=O)Nc1ccc(C(=O)N2CCCC(O)c3cc(Cl)ccc32)c(C)c1` (centres undefined) [TOLVAPTAN], for which the AC50 is > 30 µM at Acetylcholinesterase; > 30 µM in [1]; > 30 µM in test [2]; > 30 µM on D(1A) dopamine receptor; > 30 µM on Histamine H3 receptor; 11 µM in test [3]. Also, the AC50 in [4] is > 30 µM; in [5], > 30 µM; in test [6], > 30 µM; on Mu-type opioid receptor, 6.71 µM; in test [7], > 30 µM; in [8], > 30 µM. Further, the AC50 (in test [9]; in test [10]; in test [11]; on Thromboxane A2 receptor) was > 30 µM throughout.
`C[C@]12C=CC(=O)C=C1CC[C@H]1[C@@H]3C[C@@H](O)[C@](O)(C(=O)CO)[C@@]3(C)C[C@H](O)[C@@]12F` [TRIAMCINOLONE]: the AC50 (at Acetylcholinesterase; in [1]; in [2]; on D(1A) dopamine receptor; on Histamine H3 receptor; in test [3]) was > 30 µM in each case. Moreover, the AC50 (in [4]; in [5]; in test [6]; on Mu-type opioid receptor; in test [7]; in [8]) was > 30 µM in each case. Besides, the AC50 (in test [9]; in test [10]; in test [11]; at Thromboxane A2 receptor) was > 30 µM each time.
Regarding `CC[C@]12CCCN3CCc4c(n(c5ccccc45)[C@@](O)(C(=O)OC)C1)[C@@H]32` [VINCAMINE], the AC50 (on Acetylcholinesterase; in test [1]; in test [2]; at D(1A) dopamine receptor; on Histamine H3 receptor; in test [3]) was > 30 µM throughout. The AC50 in test [4] is > 30 µM; in [5] it was 0.46 µM; in [6], > 30 µM; at Mu-type opioid receptor, > 30 µM; in [7] it was > 30 µM; in test [8], > 30 µM. In addition, the AC50 (in [9]; in test [10]; in test [11]; on Thromboxane A2 receptor) was > 30 µM each time.
